We go through four compounds from patent US7671050B2, “Triazolophthalazines” (NYCOMED GmbH, priority 2005, dated 2010).

The test system of one data set is HUVEC monolayers. Nature of the data set: Inhibition of thrombin-stimulated macromolecule (HRP) permeability of HUVEC monolayers. The class given is cell-based, human. The following applies: Homo sapiens, 1 h; HUVEC on Transwells, 1 μM RP73401, 10 μM Motapizone, 1 mM SNP or 100 nM ANP, 1 U/ml thrombin, HRP passage after 60 min; read-out: Inhibition of SNP- or ANP-induced permeability, -log IC50 (converted). The protocol: The procedure to measure macromolecule permeability of endothelial cell monolayers followed the method described by Langeler & van Hinsbergh (1988) with modifications. Human umbilical vein endothelial cells were isolated from umbilical cords according to standard procedures (Jaffe et al. 1973) and cultured in endothelial cell basal medium (EBM) supplemented with 2% FCS, 0.5 ng/ml VEGF, 10 ng/ml bFGF, 5 ng/ml EGF, 20 ng/ml Long R3 IGF-1, 0.2 μg/ml hydrocortisone, 1 μg/ml ascorbic acid, 22.5 μg/ml heparin, 50 μg/ml gentamicin, 50 ng/ml amphotericin B (EGM2 purchased from Promocell GmbH, Heidelberg, Germany). At confluency, cells were trypsinized and replated at 73000 cells per well on 3 μm polycarbonate filter Transwell inserts (Costar GmbH, Bodenheim, Germany) precoated with 10 μg cm^2−1 Fibronectin (Sigma, Taufkirchen, Germany). HUVECs were cultured in EGM2 (100 μl in the upper wells and 600 μl in the lower wells) over four days prior the experiments and medium was changed every other day. At the day of the experiment culture medium was replaced by M199 with 1% human serum albumin. Endothelial cells were preincubated with cyclic nucleotide modifiers (the selective PDE3 inhibitor motapizone, the selective PDE4 inhibitor RP73401, the cGMP generators ANP or SNP and PDE2 inhibitors) for 15 min. HUVECs were then stimulated with Thrombin (1 U ml^−1) (Sigma, Taufkichen, Germany) and horsh radish peroxidase (5 μg/ml) (Sigma, Taufkirchen, Germany) as the macromolecule marker protein was added to the upper wells. Following 1 h incubation time Transwells were removed and the activity of horsh radish peroxidase that penetrated the endothelial cell monolayer was measured in the lower wells with the 3,3′,5,5′-tetramethylbenzidine liquid substrate system from Sigma (Taufkirchen, Germany).
In parallel, compounds according to the invention can inhibit Thrombin-induced permeability of HUVEC monolayers for horsh radish peroxidase (HRP) as a macromolecule marker. […] The concentration-dependent inhibition of HRP permeability at different concentrations was assessed from the percent inhibition in the presence and absence of the PDE2 inhibitors and in the presence of 1 μM RP73401, 10 μM Motapizone and 100 nM ANP.
HUVEC cells on 3 μm polycarbonate filters (Transwells) were preincubated with 1 μM RP73401 (to block PDE4) and 10 μM Motapizone (to block PDE3), 1 mM SNP or 100 nM ANP and test sample over 15 min and then stimulated with 1 U/ml thrombin. HRP passage into the lower wells was assessed after 60 min.

`COc1ccc(-c2nnc3c4ccccc4c(Nc4cc(OC)cc(OC)c4)nn23)cc1` [Example 27, (3,5-Dimethoxyphenyl)-[3-(4-methoxyphenyl)-[1,2,4]triazolo[3,4-a]phthalazin-6-yl]-amine] displayed a melting point of 218 °C. Further, the IC50 in the data set with HUVEC monolayers was 7.94 to 316 nM.
On the same counts, the results for `COc1ccc(-c2nnc3c4ccccc4c(Nc4cccc(OC(F)F)c4)nn23)cc1` [Example 28, [3-(1,1-Difluoromethoxy)-phenyl]-[3-(4-methoxyphenyl)-[1,2,4]triazolo[3,4-a]phthalazin-6-yl]-amine] are 247 °C and 7.94 to 316 nM.
As for `CCOc1ccc(Nc2nn3c(-c4ccc(OC)cc4)nnc3c3ccccc23)cc1OCC` [Example 29, (3,4-Diethoxyphenyl)-[3-(4-methoxyphenyl)-[1,2,4]triazolo[3,4-a]phthalazin-6-yl]-amine], the melting point worked out at 242.5 °C. Besides, the IC50 in the data set on HUVEC monolayers is 7.94 to 316 nM.
For `COc1ccc(-c2nnc3c4ccccc4c(Nc4ccc(OC(F)F)cc4)nn23)cc1` [Example 30, [4-(1,1-Difluoromethoxy)-phenyl]-[3-(4-methoxyphenyl)-[1,2,4]triazolo[3,4-a]phthalazin-6-yl]-amine], in that order: 294 °C and 7.94 to 316 nM.

Usually IC50 stands for the midpoint of a concentration-inhibition curve. Usually melting point stands for the temperature, or range, at which the solid turns liquid.
